# According to ChEMBL document CHEMBL5291721, “A preclinical secondary pharmacology resource illuminates target-adverse drug reaction associations of marketed drugs” (Nat Commun, 2023):
# Key:
# Adenosine receptor A1 = molecular target: T1, Adenosine receptor A1 (Homo sapiens, UniProt P30542)
# T1 sequence (P30542 whole entry): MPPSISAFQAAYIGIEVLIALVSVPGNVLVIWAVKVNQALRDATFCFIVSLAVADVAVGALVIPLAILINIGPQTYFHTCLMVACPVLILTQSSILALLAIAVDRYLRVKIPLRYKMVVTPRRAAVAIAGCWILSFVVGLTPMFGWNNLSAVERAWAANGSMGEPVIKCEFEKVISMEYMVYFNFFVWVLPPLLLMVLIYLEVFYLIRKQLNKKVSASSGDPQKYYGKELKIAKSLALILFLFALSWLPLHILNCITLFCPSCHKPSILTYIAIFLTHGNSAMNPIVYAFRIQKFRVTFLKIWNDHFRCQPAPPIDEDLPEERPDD
# Adenosine receptor A3 = molecular target: T2, Adenosine receptor A3 (Homo sapiens, UniProt P0DMS8)
# T2 sequence (P0DMS8 whole entry): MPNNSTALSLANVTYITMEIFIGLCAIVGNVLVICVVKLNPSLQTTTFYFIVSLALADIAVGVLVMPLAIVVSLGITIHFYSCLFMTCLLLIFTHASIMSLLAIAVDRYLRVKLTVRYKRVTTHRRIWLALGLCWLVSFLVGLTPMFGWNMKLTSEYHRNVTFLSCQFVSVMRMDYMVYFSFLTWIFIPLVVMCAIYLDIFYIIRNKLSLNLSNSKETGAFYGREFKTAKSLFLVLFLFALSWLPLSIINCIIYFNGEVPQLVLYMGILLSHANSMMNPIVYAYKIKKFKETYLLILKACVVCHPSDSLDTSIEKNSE
# [1] = molecular target: T3, Muscarinic acetylcholine receptor M2 (Homo sapiens, UniProt P08172); assay type: functional, cell-based
# T3 sequence (P08172 whole entry): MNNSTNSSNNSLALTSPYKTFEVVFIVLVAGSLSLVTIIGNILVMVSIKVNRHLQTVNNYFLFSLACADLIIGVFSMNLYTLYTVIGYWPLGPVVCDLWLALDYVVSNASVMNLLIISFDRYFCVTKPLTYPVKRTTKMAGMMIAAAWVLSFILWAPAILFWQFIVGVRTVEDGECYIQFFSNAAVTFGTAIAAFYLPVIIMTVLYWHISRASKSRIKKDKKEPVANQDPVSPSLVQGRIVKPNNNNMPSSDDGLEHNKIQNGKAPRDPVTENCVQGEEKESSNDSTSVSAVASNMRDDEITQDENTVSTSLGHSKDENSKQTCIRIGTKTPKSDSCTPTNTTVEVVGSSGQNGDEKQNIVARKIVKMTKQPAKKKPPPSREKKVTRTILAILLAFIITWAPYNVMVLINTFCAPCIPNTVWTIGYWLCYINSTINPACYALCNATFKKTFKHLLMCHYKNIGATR
# [2] = molecular target: T4, Neuropeptide Y receptor type 1 (Homo sapiens, UniProt P25929)
# T4 sequence (P25929 whole entry): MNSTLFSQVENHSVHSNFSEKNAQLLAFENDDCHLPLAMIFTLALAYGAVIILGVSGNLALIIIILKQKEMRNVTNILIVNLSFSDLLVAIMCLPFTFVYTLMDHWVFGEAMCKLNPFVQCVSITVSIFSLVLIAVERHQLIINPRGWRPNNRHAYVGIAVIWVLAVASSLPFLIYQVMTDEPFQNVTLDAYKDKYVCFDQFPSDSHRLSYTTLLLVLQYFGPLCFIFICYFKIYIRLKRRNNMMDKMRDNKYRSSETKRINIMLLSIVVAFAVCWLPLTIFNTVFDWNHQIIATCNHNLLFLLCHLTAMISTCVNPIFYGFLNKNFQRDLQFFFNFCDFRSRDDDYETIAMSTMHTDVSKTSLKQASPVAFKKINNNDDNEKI
# [3] = molecular target: T5, Alpha-1A adrenergic receptor (Homo sapiens, UniProt P35348); assay type: functional, cell-based
# T5 sequence (P35348 whole entry): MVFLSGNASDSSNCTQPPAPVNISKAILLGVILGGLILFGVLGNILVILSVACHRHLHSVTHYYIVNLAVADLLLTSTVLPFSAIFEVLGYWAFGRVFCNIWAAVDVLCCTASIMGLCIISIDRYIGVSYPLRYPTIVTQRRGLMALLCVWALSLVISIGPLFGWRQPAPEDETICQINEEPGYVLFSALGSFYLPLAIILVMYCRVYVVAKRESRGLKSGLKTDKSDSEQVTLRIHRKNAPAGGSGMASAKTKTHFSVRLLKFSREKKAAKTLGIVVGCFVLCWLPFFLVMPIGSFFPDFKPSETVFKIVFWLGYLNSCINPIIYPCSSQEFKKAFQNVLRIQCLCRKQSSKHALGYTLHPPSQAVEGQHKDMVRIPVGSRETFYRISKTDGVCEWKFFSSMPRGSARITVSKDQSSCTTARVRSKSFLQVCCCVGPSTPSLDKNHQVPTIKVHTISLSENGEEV
# [4] = molecular target: T6, Muscarinic acetylcholine receptor M1 (Homo sapiens, UniProt P11229); assay type: functional
# T6 sequence (P11229 whole entry): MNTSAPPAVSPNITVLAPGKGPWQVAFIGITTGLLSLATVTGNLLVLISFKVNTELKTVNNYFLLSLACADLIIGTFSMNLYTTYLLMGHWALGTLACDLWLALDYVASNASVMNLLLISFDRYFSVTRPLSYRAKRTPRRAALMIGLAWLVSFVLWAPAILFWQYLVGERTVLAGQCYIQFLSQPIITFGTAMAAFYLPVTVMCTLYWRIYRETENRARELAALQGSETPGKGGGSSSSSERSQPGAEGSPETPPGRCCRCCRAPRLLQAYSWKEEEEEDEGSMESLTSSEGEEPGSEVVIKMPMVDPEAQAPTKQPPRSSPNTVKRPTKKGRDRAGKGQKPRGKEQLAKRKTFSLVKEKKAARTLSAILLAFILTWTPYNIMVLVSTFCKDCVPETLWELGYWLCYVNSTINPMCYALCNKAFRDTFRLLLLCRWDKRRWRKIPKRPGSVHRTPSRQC
# Histamine H1 receptor = Histamine H1 receptor (Homo sapiens, UniProt P35367)
# [5] = molecular target: 5-hydroxytryptamine receptor 2A (Homo sapiens, UniProt P28223); assay type: functional, cell-based
# Note: assay procedure not described here.
# Histamine H1 receptor, sequence (P35367 whole entry): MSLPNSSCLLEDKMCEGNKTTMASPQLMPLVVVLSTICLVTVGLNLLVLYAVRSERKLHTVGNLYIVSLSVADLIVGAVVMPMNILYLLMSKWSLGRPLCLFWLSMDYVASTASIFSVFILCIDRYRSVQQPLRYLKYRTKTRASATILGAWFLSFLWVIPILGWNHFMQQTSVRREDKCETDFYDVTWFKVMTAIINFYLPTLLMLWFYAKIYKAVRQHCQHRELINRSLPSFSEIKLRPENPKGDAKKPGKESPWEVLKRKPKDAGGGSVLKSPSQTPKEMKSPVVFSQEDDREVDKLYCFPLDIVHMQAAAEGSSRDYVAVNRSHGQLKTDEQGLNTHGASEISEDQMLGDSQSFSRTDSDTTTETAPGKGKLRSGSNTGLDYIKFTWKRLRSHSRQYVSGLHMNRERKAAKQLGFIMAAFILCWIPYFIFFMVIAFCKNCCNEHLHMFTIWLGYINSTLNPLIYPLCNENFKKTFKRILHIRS
# 5-hydroxytryptamine receptor 2A, sequence (P28223 whole entry): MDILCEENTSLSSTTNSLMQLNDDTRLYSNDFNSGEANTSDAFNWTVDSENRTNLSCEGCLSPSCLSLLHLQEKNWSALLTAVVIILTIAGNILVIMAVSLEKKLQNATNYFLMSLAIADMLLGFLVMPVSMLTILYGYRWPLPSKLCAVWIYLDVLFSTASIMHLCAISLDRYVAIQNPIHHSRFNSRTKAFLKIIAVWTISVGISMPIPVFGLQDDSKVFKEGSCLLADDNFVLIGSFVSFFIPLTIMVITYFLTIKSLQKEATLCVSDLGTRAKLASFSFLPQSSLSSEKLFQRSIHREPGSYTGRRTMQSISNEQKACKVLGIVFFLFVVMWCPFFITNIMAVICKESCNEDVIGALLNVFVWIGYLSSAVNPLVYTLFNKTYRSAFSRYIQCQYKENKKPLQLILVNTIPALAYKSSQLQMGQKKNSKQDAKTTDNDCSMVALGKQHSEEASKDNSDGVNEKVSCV
Compound,AC50 (Adenosine receptor A1) [µM],AC50 (Adenosine receptor A3) [µM],AC50 [1] [µM],AC50 [2] [µM],AC50 [3] [µM],AC50 [4] [µM],AC50 (Histamine H1 receptor) [µM],AC50 [5] [µM]
N=C(N)NC(=O)c1nc(Cl)c(N)nc1N [AMILORIDE],> 30,> 30,> 30,> 30,> 30,–,–,–
COc1ccc(-c2cc(=S)ss2)cc1 [ANETHOLTRITHION],5.9,7.7,> 30,9.8,> 30,> 30,> 30,> 30
CC(C)(C)NCC(O)COc1ccccc1C#N (stereo not drawn) [BUNITROLOL],–,–,> 30,–,> 30,> 30,> 30,> 30
C[C@]12CCC(=O)C=C1C=C[C@@H]1[C@@H]2CC[C@@]2(C)[C@H]1CC[C@@]21CCC(=O)O1 [CANRENONE],> 30,> 30,> 30,> 30,> 30,> 30,> 30,> 30
CN(C)CCC(O)(c1ccccc1)c1ccccc1Cl (stereo not drawn) [CHLOPHEDIANOL],> 10,> 10,> 10,> 10,–,> 10,> 10,4.4
C[C@]12C=CC(=O)C=C1C(Cl)=C[C@@H]1[C@@H]2[C@@H](O)C[C@@]2(C)[C@H]1CC[C@]2(O)C(=O)CO [CLOPREDNOL],> 30,13,> 30,> 30,–,> 30,> 30,> 30
COc1cccc2c1C(=O)c1c(O)c3c(c(O)c1C2=O)C[C@@](O)(C(=O)CO)C[C@@H]3O[C@H]1C[C@H](N)[C@H](O)[C@H](C)O1 [DOXORUBICIN],> 30,> 30,> 10,> 30,–,–,–,–
C[C@]12CCC(=O)C=C1[C@@H]1C[C@@H]1[C@H]1[C@@H]3[C@@H]4C[C@@H]4[C@@]4(CCC(=O)O4)[C@@]3(C)CC[C@@H]12 [DROSPIRENONE],> 30,> 30,13,> 30,> 30,> 30,> 30,24
CC(C)(Oc1ccc(Cl)cc1)C(=O)OCCOC(=O)c1cccnc1 [ETOFIBRATE],> 30,> 30,> 30,> 30,> 30,> 30,> 30,> 30
CCn1c(=O)c2c(nc(/C=C/c3ccc(OC)c(OC)c3)n2C)n(CC)c1=O [ISTRADEFYLLINE],23,24,> 30,–,> 30,> 30,> 30,> 30
COc1ccc(C(=O)c2ccccc2)c(O)c1 [OXYBENZONE],–,–,> 30,–,> 30,> 30,17,> 30
C[C@]12C=CC(=O)C=C1CC[C@@H]1[C@@H]2[C@@H](O)C[C@@]2(C)[C@H]1CC[C@]2(O)C(=O)CO [PREDNISOLONE],> 30,> 30,> 10,> 30,> 30,–,–,–
CCC(=O)c1ccc2c(c1)N(CC(C)N(C)C)c1ccccc1S2 (stereo not drawn) [PROPIOMAZINE],> 10,> 10,> 10,> 10,–,0.12,0.034,1
Cc1cn(-c2cc(NC(=O)c3ccc(C)c(Nc4nccc(-c5cnccn5)n4)c3)cc(C(F)(F)F)c2)cn1 [RADOTINIB],–,3.3,> 30,–,> 30,> 30,> 30,> 30
CNC(=O)c1cnn(-c2nc(N)c3ncn([C@@H]4O[C@H](CO)[C@@H](O)[C@H]4O)c3n2)c1 [REGADENOSON ANHYDROUS],–,3.7,–,–,–,–,–,–
CN(C)[C@@H]1C(O)=C(C(=O)NCN2CCCC2)C(=O)[C@@]2(O)C(O)=C3C(=O)c4c(O)cccc4[C@@](C)(O)[C@H]3C[C@@H]12 [ROLITETRACYCLINE],> 10,> 10,> 10,> 10,> 30,> 10,> 10,> 30
Cc1ccc(O)c([C@H](CCN(C(C)C)C(C)C)c2ccccc2)c1 [TOLTERODINE],–,–,–,–,> 30,0.0051,4.06,–
CC1(C)O[C@@H]2C[C@H]3[C@@H]4CCC5=CC(=O)C=C[C@]5(C)[C@@]4(F)[C@@H](O)C[C@]3(C)[C@]2(C(=O)CO)O1 [TRIAMCINOLONE ACETONIDE],> 30,> 30,> 30,> 30,–,–,–,–
Oc1cc(Cl)ccc1Oc1ccc(Cl)cc1Cl [TRICLOSAN],> 30,8.9,–,> 30,> 30,> 30,> 30,> 30
